What all share (assay type): biochemical
The target of one experiment is T1, Recombinant human HDAC8 (Homo sapiens, UniProt Q9BY41).
T1 construct: purchased Enzo Life Sciences BML-SE145-0100
T1 sequence (Q9BY41 1-377): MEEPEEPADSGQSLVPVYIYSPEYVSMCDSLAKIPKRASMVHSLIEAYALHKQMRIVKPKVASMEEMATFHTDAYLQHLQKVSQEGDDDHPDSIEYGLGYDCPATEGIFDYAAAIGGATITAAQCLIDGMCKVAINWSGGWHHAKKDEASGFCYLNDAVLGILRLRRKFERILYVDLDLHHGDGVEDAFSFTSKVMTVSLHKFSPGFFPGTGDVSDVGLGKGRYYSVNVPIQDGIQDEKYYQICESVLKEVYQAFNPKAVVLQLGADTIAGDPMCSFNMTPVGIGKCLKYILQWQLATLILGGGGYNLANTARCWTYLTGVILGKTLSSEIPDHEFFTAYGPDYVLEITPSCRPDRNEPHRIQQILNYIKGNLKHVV
Kind of experiment: Human HDAC enzyme inhibitor Fluor-de-Lys assay, HDAC8. The note with it: recombinant human HDAC8, Fluor-de-Lys assay.

For a further experiment, the target named is T2, Recombinant human HDAC2 (Homo sapiens, UniProt Q92769).
T2 construct: Full length human HDAC2-FLAG was expressed in baculovirus infected Sf9 cells; FLAG (C); made in house; host or cells: Sf9 (baculovirus)
T2 sequence (Q92769 whole entry): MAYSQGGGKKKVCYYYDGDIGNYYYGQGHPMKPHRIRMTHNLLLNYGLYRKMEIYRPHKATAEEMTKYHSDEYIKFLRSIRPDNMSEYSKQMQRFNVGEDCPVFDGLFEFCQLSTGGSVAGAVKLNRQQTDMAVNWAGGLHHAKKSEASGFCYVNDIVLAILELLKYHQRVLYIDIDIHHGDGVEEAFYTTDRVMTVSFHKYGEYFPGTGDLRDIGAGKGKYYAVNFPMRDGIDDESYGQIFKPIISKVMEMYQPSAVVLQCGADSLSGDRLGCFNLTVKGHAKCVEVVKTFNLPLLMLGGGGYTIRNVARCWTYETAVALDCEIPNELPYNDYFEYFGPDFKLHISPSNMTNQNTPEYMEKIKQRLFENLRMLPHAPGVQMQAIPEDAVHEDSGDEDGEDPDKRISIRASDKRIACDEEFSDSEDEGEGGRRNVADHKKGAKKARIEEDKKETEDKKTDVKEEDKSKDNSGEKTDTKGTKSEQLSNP
Kind of experiment: Human HDAC enzyme inhibitor Fluor-de-Lys assay, HDAC2. The settings on record: recombinant human HDAC2, Fluor-de-Lys assay. The essentials: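 Fluor-de-Lys format at room temperature (23° C.): compounds titrated 10-point, 1:3, preincubated with HDAC before substrate addition. Developer with excess HDAC inhibitor ends the reaction, and trypsin-liberated AMC fluorescence is the read-out.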

The target of a further experiment is T3, HDAC6 (Homo sapiens, UniProt Q9UBN7).
T3 sequence (Q9UBN7 1-1215): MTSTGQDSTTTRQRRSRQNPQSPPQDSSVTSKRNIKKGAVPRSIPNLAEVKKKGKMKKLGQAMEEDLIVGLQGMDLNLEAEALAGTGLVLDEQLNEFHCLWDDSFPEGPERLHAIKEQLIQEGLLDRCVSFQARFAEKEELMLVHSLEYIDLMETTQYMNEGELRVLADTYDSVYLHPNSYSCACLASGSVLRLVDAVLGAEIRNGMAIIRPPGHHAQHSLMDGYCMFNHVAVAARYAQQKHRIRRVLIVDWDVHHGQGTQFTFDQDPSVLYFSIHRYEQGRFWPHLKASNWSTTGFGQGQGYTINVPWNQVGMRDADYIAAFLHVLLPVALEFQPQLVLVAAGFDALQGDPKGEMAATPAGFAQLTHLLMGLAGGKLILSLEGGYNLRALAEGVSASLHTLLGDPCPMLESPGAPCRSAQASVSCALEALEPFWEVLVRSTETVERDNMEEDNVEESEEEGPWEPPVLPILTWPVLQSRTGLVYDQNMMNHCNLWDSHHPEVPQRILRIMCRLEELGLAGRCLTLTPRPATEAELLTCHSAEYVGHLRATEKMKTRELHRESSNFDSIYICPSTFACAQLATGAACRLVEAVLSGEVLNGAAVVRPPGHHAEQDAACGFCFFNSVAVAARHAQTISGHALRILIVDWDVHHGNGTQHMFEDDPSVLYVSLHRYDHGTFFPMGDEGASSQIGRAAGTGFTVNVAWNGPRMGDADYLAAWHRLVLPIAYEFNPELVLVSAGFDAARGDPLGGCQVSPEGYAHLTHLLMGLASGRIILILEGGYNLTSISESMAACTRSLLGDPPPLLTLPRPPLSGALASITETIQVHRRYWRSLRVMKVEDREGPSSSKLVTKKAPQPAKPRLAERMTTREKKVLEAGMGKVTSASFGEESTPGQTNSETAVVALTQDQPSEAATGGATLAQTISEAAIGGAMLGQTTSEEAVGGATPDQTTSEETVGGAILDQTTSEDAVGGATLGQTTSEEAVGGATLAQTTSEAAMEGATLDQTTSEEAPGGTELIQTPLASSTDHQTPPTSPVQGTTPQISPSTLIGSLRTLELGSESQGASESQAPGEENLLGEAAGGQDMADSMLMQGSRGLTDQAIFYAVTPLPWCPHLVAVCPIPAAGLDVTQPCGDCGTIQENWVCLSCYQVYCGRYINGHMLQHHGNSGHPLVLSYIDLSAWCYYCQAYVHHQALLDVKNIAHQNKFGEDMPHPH
Kind of experiment: Human HDAC enzyme inhibitor Fluor-de-Lys assay, HDAC6. The note with it: HDAC6, Fluor-de-Lys assay.

By IC50 is commonly meant the concentration that inhibits the measured activity by half. With `CCC(=O)CCCCC[C@H](NC(=O)C1=NOC2(CCN(CC3CC3)CC2)C1)c1ncc(-c2cc3ccc(C)nc3cc2F)[nH]1` [Compound 234], the IC50 on Recombinant human HDAC8 is above 900 nM; on Recombinant human HDAC2, 14.1 nM; against HDAC6, above 900 nM.
With `CCC(=O)CCCCC[C@H](NC(=O)C1=NOC2(CCN(CC)CC2)C1)c1ncc(-c2cc3ccc(=O)n(C)c3cc2OC)o1` [Compound 235], the IC50 at Recombinant human HDAC8 was above 900 nM; on Recombinant human HDAC2, 12.4 nM; on HDAC6 it was above 900 nM.
As to `CCC(=O)CCCCC[C@H](NC(=O)C1=NOC2(CCN(CC3CC3)CC2)C1)c1ncc(-c2cc3ccc(=O)n(C)c3cc2OC)o1` [Compound 236], the figures for the IC50 at Recombinant human HDAC8, on Recombinant human HDAC2 and at HDAC6 were above 900 nM, 9.9 nM and above 900 nM, respectively.
`CCC(=O)CCCCC[C@H](NC(=O)C1=NOC2(CCN(C)CC2)C1)c1ncc(-c2ccc(-c3cnccn3)cc2OC)o1` [Compound 237, N-{(1S)-1-[5-(2-methoxy-4-pyrazin-2-ylphenyl)-1,3-oxazol-2-yl]-7-oxononyl}-8-methyl-1-oxa-2,8-diazaspiro[4.5]dec-2-ene-3-carboxamide]: the IC50 at Recombinant human HDAC8 is above 900 nM; at Recombinant human HDAC2, 27.2 nM; against HDAC6, above 900 nM.
Turning to `CCC(=O)CCCCC[C@H](NC(=O)[C@H]1CC12CCN(CC)CC2)c1ncc(-c2ccc3nn(C4CC4)cc3c2)[nH]1` [Compound 238], the IC50 on Recombinant human HDAC8 is 6500 nM; at Recombinant human HDAC2, 1.9 nM; at HDAC6 it was 7780 nM.
For `CCCC(=O)CCCCC[C@H](NC(=O)[C@H]1CC12CCN(C)CC2)c1ncc(-c2ccc(F)cc2)[nH]1` [Compound 239] the same measures were 20600 nM, 77.4 nM and above 45000 nM.
For `CCC(=O)CCCCC[C@H](NC(=O)[C@H]1CC12CCN(C)CC2)c1[nH]c(-c2ccc(F)cc2)nc1Cl` [Compound 240] the same measures were 26700 nM, 38.1 nM and 38400 nM.
Regarding `CCC(=O)CCCCC[C@H](NC(=O)C1CC12CCN(CC)CC2)c1nc(-c2ccc(F)cc2)[nH]c1-c1cnc(OC)nc1` (stereo partly drawn) [Compound 247], the IC50 on Recombinant human HDAC8 was 21800 nM; on Recombinant human HDAC2 it was 214 nM; on HDAC6, above 45000 nM.
On to `CCC(=O)CCCCC[C@H](NC(=O)C1CC12CCN(CC)CC2)c1nc(-c2ccc(F)cc2)[nH]c1-c1cnn(C)c1` (stereo partly drawn) [Compound 248], for which the 50% inhibitory concentration (IC50) is 22300 nM at Recombinant human HDAC8, 24.1 nM on Recombinant human HDAC2 and above 45000 nM against HDAC6.
With `CCC(=O)CCCCC[C@H](NC(=O)C1CC12CCN(CC)CC2)c1nc(-c2ccc(F)cc2)[nH]c1-c1cn[nH]c1` (stereo partly drawn) [Compound 249], the IC50 on Recombinant human HDAC8 amounted to 31500 nM; at Recombinant human HDAC2, 88.3 nM; against HDAC6 it was 19300 nM.
For `CCC(=O)CCCCC[C@H](NC(=O)C1CC12CCN(CC)CC2)c1nc(-c2ccc(F)cc2)[nH]c1-c1ccsc1` (stereo partly drawn) [Compound 250] the same measures were 38300 nM, 192 nM and 21900 nM.
For `CCC(=O)CCCCC[C@H](NC(=O)C1CC12CCN(CC)CC2)c1nc(-c2ccc(F)cc2)[nH]c1-c1ccn(C)c1` (stereo partly drawn) [Compound 251] the same measures were 29400 nM, 12.6 nM and 41700 nM.
`CCC(=O)CCCCC[C@H](NC(=O)C1CC12CCN(CC)CC2)c1nc(-c2ccc(F)cc2)[nH]c1-c1cccs1` (stereo partly drawn) [Compound 252]: the IC50 on Recombinant human HDAC8 was 29600 nM; at Recombinant human HDAC2, 185 nM; against HDAC6 it was 33900 nM.
On to `CCC(=O)CCCCCC(NC(=O)C1CC12CCN(CC)CC2)c1nc(-c2ccc(F)cc2)[nH]c1-c1ccnn1C` (stereo not drawn) [Compound 253], for which the IC50 at Recombinant human HDAC8 is 26800 nM; at Recombinant human HDAC2, 111 nM; on HDAC6 it was above 45000 nM.
For `CCCn1cc(-c2[nH]c(-c3ccc(F)cc3)nc2C(CCCCCC(=O)CC)NC(=O)C2CC23CCN(CC)CC3)cn1` (stereo not drawn) [Compound 254] the same measures were 38700 nM, 131 nM and above 45000 nM.
For `CCC(=O)CCCCC[C@H](NC(=O)[C@H]1CC12CCN(C)CC2)c1ncc(-c2cnc(OC)nc2)[nH]1` [Compound 255] the same measures were 5790 nM, 491 nM and 12100 nM.
Regarding `CCC(=O)CCCCC[C@H](NC(=O)[C@H]1CC12CCN(C)CC2)c1ncc(-c2cnc3c(c2)ncn3C)[nH]1` [Compound 256], the IC50 at Recombinant human HDAC8 turned out to be 1100 nM; at Recombinant human HDAC2, 280 nM; on HDAC6, 3930 nM.
For `CCC(=O)CCCCC[C@H](NC(=O)[C@H]1CC12CCN(C)CC2)c1ncc(-c2cnc(-n3cc(C)cn3)nc2)[nH]1` [Compound 257] the same measures were 10400 nM, 185 nM and 36600 nM.
With `CCC(=O)CCCCC[C@H](NC(=O)[C@H]1CC12CCN(C)CC2)c1ncc(-c2ccc(C(=O)NC3CCOC3)cc2)[nH]1` (stereo partly drawn) [Compound 258], the results for the IC50 on Recombinant human HDAC8, at Recombinant human HDAC2 and at HDAC6 were 16400 nM, 23.8 nM and 38700 nM, respectively.
Turning to `CCC(=O)CCCCC[C@H](NC(=O)[C@H]1CC12CCN(C)CC2)c1ncc(-c2cnc3cccnc3c2)[nH]1` [Compound 259], the IC50 came to 6140 nM at Recombinant human HDAC8, 95 nM on Recombinant human HDAC2 and 3140 nM at HDAC6.
For `CCC(=O)CCCCC[C@H](NC(=O)[C@H]1CC12CCN(C)CC2)c1ncc(-c2ccc(-n3nc(C)cc3C)cc2)[nH]1` [Compound 260], in that order: above 15000 nM, 52.5 nM and 28400 nM.
For `CCC(=O)CCCCC[C@H](NC(=O)[C@H]1CC12CCN(C)CC2)c1ncc(-c2ccnc(N3CCOCC3)c2F)[nH]1` [Compound 261] the same measures were 4590 nM, 102 nM and 2470 nM.
For `CCC(=O)CCCCC[C@H](NC(=O)[C@H]1CC12CCN(C)CC2)c1ncc(-c2ccc(-c3cccnc3)nc2)[nH]1` [Compound 262] the same measures were 12600 nM, 18.8 nM and 33500 nM.
Turning to `CCC(=O)CCCCC[C@H](NC(=O)[C@H]1CC12CCN(C)CC2)c1ncc(-c2cn(C)c3ccccc23)[nH]1` [Compound 264], the figures for the half-inhibitory concentration (IC50) at Recombinant human HDAC8, at Recombinant human HDAC2 and against HDAC6 were 1140 nM, 5.9 nM and 1710 nM, respectively.
For `CCC(=O)CCCCC[C@H](NC(=O)[C@H]1CC12CCN(C)CC2)c1ncc(-c2ccc3c(c2)c2ccccc2n3C)[nH]1` [Compound 265] the same measures were 4600 nM, 12.4 nM and 630 nM.
Regarding `CCOc1ncc(-c2cnc([C@H](CCCCCC(=O)CC)NC(=O)[C@H]3CC34CCN(C)CC4)[nH]2)cn1` [Compound 266], the IC50 on Recombinant human HDAC8 is 19300 nM; on Recombinant human HDAC2, 372 nM; on HDAC6, 42500 nM.
For `CCC(=O)CCCCC[C@H](NC(=O)[C@H]1CC12CCN(C)CC2)c1ncc(-c2ccc(C)nc2OC)[nH]1` [Compound 268] the same measures were 6080 nM, 17.2 nM and 1780 nM.
For `CCC(=O)CCCCC[C@H](NC(=O)C1=NOC2(CCN(CC)CC2)C1)c1ncc(-c2cc3ccc(C)nc3cc2F)o1` [Compound 269] the same measures were above 900 nM, 36.7 nM and above 900 nM.

Values taken from patent US12590099B2, “Inhibitors of histone deacetylase useful for the treatment or prevention of HIV infection” (Merck Sharp & Dohme LLC, priority 2018, dated 2026).
